Measurements reported in patent US11434194B2, “Amorphous form of vilanterol trifenatate and processes for the preparation thereof” (Hovione Scientia Limited, priority 2017, dated 2022).

Tests used:
Type in all cases: physicochemical
[1] = Dynamic vapour sorption (DVS) analysis / kinetic moisture sorption, hygroscopicity; details: for Change In Mass (%) Desorption / Change In Mass (%) Hysteresis / Change In Mass (%) Sorption: 25° C.
Experimental: The values in the table are weight % variations that result from the use of the European Pharmacopoeia equation provided below. The hygroscopicity value is indicated from the sorption row at 80% RH of cycle 1.
The sample was subjected to DVS measuring using SMS-DVS intrinsic. The kinetic moisture sorption measurement was performed at 25° C. and in a RH % range described in the following: • From 40% RH to 90% RH • Form 90% RH to 0% RH • From 0% RH to 90% RH • From 90% RH to 0% RH
The sample was analyzed by XRPD after the analysis.
The hygroscopicity was calculated using the following equation: % Weight Change=[(W2−W1)/W1]*100, (1) wherein W1 is the weight of the sample at the start of the experiment (25° C. and 40% RH), and W2 is the weight of the sample at 25° C. and 80% RH in the first absorption cycle.

[2] = Visual solubility in differing solvents (European Pharmacopeia 6.0 section 5.11)
Experimental: Visual solubility of the amorphous form of the invention in differing solvents was assessed according to the procedure described in the European Pharmacopeia 6.0 section 5.11. p. 659 (see corresponding SI dissolution ranges in Table 2), and compared with that for Form 1. The following method was used: Dissolving procedure: the compound was shaken vigorously for 1 min and placed in a constant temperature device for 15 min at 25.0±0.5° C. If the compound was not completely dissolved, the shaking was repeated for 1 min and the tube placed in a constant temperature device for 15 min. Method: 50 mg of compound was weighed in a stoppered tube, 0.05 mL of the solvent added and the Dissolving Procedure (see above) followed. If the compound was completely dissolved, it was defined very soluble. If the compound was not completely dissolved, a further 0.45 mL of the solvent was added and the Dissolving Procedure (see above) followed. […] If the compound was still not completely dissolved, still further 1.0 mL of the solvent was added and the Dissolving Procedure (see above) followed. If the compound was completely dissolved, it was defined as soluble. If the compound was still not completely dissolved, another 3.5 mL of the solvent was added and the Dissolving Procedure (see above) followed. […] If the compound was still not completely dissolved, the compound was slightly soluble or very slightly soluble. In this case, the suspension was heated up to the boiling point (max 80° C.) under stirring to verify the solubility at high temperature. The hot solution was afterwards cooled to room temperature to observe whether the compound precipitates. If the compound at room, temperature was completely dissolved, it is soluble at high temperature. [table]

[3] = Solid-state storage stability (XRPD pattern, HPLC chromatogram)
Experimental: Such conditions reflect conditions similar to those in which the current medicaments (mentioned above) may be stored.
HPLC analysis was conducted using a waters system under the following conditions:
X-ray powder patterns were recorded using the PANalytical X'Pert PRO X-ray diffraction system equipped with a PW3373/00 Cu LFF DK184511 X-Ray tube and a X'Celerator RTMS (Real Time Multiple Strip) detector under the following conditions: […]

With `OCc1cc([C@@H](O)CNCCCCCCOCCOCc2c(Cl)cccc2Cl)ccc1O` [amorphous vilanterol trifenatate, 4-((1R)-2-((6-(2-((2,6-Dichlorophenyl)methoxy)ethoxy)-hexyl)amino)-1-hydroxyethyl)-2-(hydroxymethyl)phenol triphenylacetate] the “mass increase (dynamic vapour sorption analysis; hygroscopicity value)” value ([1]; 80% RH at 25° C., sorption, cycle 1) was 1.34%, the “hygroscopicity classification (European Pharmacopeia version 7)” value ([1]; % weight change from 40% RH to 80% RH at 25° C., first absorption cycle) was “slightly hygroscopic” and the “Change In Mass (%) Desorption” value ([1]; Cycle 1, target RH 0.0%) was 1.186%. For the same molecule, the “Change In Mass (%) Desorption” value ([1]; Cycle 1, target RH 10.0%) was 1.224%, the “Change In Mass (%) Desorption” value ([1]; Cycle 1, target RH 20.0%) was 1.257% and the “Change In Mass (%) Desorption” value ([1]; Cycle 1, target RH 30.0%) was 1.298%. The “Change In Mass (%) Desorption” value ([1]; Cycle 1, target RH 40.0%) was 1.333%, the “Change In Mass (%) Hysteresis” value ([1]; Cycle 1, target RH 40.0%) was 1.332% and the “Change In Mass (%) Sorption” value ([1]; Cycle 1, target RH 40.0%) was 0.001%. The “Change In Mass (%) Desorption” value ([1]; Cycle 1, target RH 50.0%) was 1.368%, the “Change In Mass (%) Hysteresis” value ([1]; Cycle 1, target RH 50.0%) was 1.101% and the “Change In Mass (%) Sorption” value ([1]; Cycle 1, target RH 50.0%) was 0.267%. For the same molecule, the “Change In Mass (%) Desorption” value ([1]; Cycle 1, target RH 60.0%) was 1.401%, the “Change In Mass (%) Hysteresis” value ([1]; Cycle 1, target RH 60.0%) was 0.784% and the “Change In Mass (%) Sorption” value ([1]; Cycle 1, target RH 60.0%) was 0.618%. For the same molecule, the “Change In Mass (%) Desorption” value ([1]; Cycle 1, target RH 70.0%) was 1.437%, the “Change In Mass (%) Hysteresis” value ([1]; Cycle 1, target RH 70.0%) was 0.423% and the “Change In Mass (%) Sorption” value ([1]; Cycle 1, target RH 70.0%) was 1.013%. For the same molecule, the “Change In Mass (%) Desorption” value ([1]; Cycle 1, target RH 80.0%) was 1.474%, the “Change In Mass (%) Hysteresis” value ([1]; Cycle 1, target RH 80.0%) was 0.131% and the “Change In Mass (%) Sorption” value ([1]; Cycle 1, target RH 80.0%) was 1.344%. The “Change In Mass (%) Desorption” value ([1]; Cycle 1, target RH 90.0%) was 1.516%, the “Change In Mass (%) Sorption” value ([1]; Cycle 1, target RH 90.0%) was 1.516% and the “Change In Mass (%) Desorption” value ([1]; Cycle 2, target RH 0.0%) was 1.063%. The “Change In Mass (%) Sorption” value ([1]; Cycle 2, target RH 0.0%) was 1.186%, the “Change In Mass (%) Desorption” value ([1]; Cycle 2, target RH 10.0%) was 1.186% and the “Change In Mass (%) Hysteresis” value ([1]; Cycle 2, target RH 10.0%) was 0.006%. The “Change In Mass (%) Sorption” value ([1]; Cycle 2, target RH 10.0%) was 1.180%, the “Change In Mass (%) Desorption” value ([1]; Cycle 2, target RH 20.0%) was 1.214% and the “Change In Mass (%) Hysteresis” value ([1]; Cycle 2, target RH 20.0%) was 0.035%. The “Change In Mass (%) Sorption” value ([1]; Cycle 2, target RH 20.0%) was 1.179%, the “Change In Mass (%) Desorption” value ([1]; Cycle 2, target RH 30.0%) was 1.243% and the “Change In Mass (%) Hysteresis” value ([1]; Cycle 2, target RH 30.0%) was 0.061%. The “Change In Mass (%) Sorption” value ([1]; Cycle 2, target RH 30.0%) was 1.182%, the “Change In Mass (%) Desorption” value ([1]; Cycle 2, target RH 40.0%) was 1.269% and the “Change In Mass (%) Hysteresis” value ([1]; Cycle 2, target RH 40.0%) was 0.079%. The “Change In Mass (%) Sorption” value ([1]; Cycle 2, target RH 40.0%) was 1.189%, the “Change In Mass (%) Desorption” value ([1]; Cycle 2, target RH 50.0%) was 1.294% and the “Change In Mass (%) Hysteresis” value ([1]; Cycle 2, target RH 50.0%) was 0.090%. The “Change In Mass (%) Sorption” value ([1]; Cycle 2, target RH 50.0%) was 1.205%, the “Change In Mass (%) Desorption” value ([1]; Cycle 2, target RH 60.0%) was 1.320% and the “Change In Mass (%) Hysteresis” value ([1]; Cycle 2, target RH 60.0%) was 0.093%. The “Change In Mass (%) Sorption” value ([1]; Cycle 2, target RH 60.0%) was 1.228%, the “Change In Mass (%) Desorption” value ([1]; Cycle 2, target RH 70.0%) was 1.345% and the “Change In Mass (%) Hysteresis” value ([1]; Cycle 2, target RH 70.0%) was 0.084%. For the same molecule, the “Change In Mass (%) Sorption” value ([1]; Cycle 2, target RH 70.0%) was 1.262%, the “Change In Mass (%) Desorption” value ([1]; Cycle 2, target RH 80.0%) was 1.369% and the “Change In Mass (%) Hysteresis” value ([1]; Cycle 2, target RH 80.0%) was 0.061%. For the same molecule, the “Change In Mass (%) Sorption” value ([1]; Cycle 2, target RH 80.0%) was 1.308%, the “Change In Mass (%) Desorption” value ([1]; Cycle 2, target RH 90.0%) was 1.393% and the “Change In Mass (%) Sorption” value ([1]; Cycle 2, target RH 90.0%) was 1.393%. The visual solubility ([2]; 1,4-dioxane at 25° C., listed as amorphous of vilanterol trifenatate) was “soluble”, the visual solubility ([2]; ethanol at 50° C.) was “sparingly soluble” and the “XRPD patterns before and after exposure” value ([3]; 60% RH at 25° C. (7 days)) was “unchanged”. For the same molecule, the “time stable on storage (XRPD pattern and HPLC chromatograms remained the same)” value ([3]; room temperature) was “at least 5 months”.
With `OCc1cc([C@@H](O)CNCCCCCCOCCOCc2c(Cl)cccc2Cl)ccc1O` [Form I, 4-((1R)-2-((6-(2-((2,6-Dichlorophenyl)methoxy)ethoxy)-hexyl)amino)-1-hydroxyethyl)-2-(hydroxymethyl)phenol triphenylacetate] the visual solubility ([2]; 1,4-dioxane at 25° C.) was “freely soluble”, the visual solubility ([2]; THF at 25° C.) was “freely soluble” and the visual solubility ([2]; ethanol at 25° C.) was “sparingly soluble”. The visual solubility ([2]; methanol at 25° C.) was “soluble”.
